Source: patent US20090247516A1, “3- (BENZO [D] [1,3] DIOXOL-5-YLMETHYL) -4- (THIO) OXO-2- (THIO) OXO-AZOLIDIN-5-YLIDENE DERIVATIVES AS ANTIBACTERIAL AGENTS” (priority 2006, published 2009)
Where two headings read alike, the source gives them in different places.

Key:
E. coli MurD = E. coli MurD (Escherichia coli, UniProt P14900); assay: MurD enzyme assay (Method A); format: biochemical; settings: for activity at 100 µM: read-out: E. coli MurD RA at 100 μM inhibitor conc.
Protocol: Method A: MurD Enzyme Assay
The compounds are tested for their ability to inhibit the formation of UDP-MurNAc-L-Ala-D-[^14C]Glu in mixtures (50 μl) containing 0.1 M Tris-HCl, pH 8.6, 5 mM MgCl2, 5 mM ATP, 25 μM UDP-MurNAc-L-Ala, 25 μM D-[^14C]Glu, inhibitor (100 μM), DMSO (5%, v/v), and enzyme. After 30 min at 37° C., the reaction is stopped by addition of acetic acid (10 μl). After lyophilization, D-[^14C]Glu and of UDP-MurNAc-L-Ala-D-[^14C]Glu are separated by reverse-phase HPLC and quantitated by on-line scintillation counting. The residual activity is determined with respect to an assay with 5% DMSO and without inhibitor (taken as 100%). Values presented are means of duplicates.
IC50 values are determined with several concentrations of the inhibitor using the Hill equation:
(§1) log[vi/(vo−vi)]=−n log[l]+logK′
(§2) where vo is the rate without inhibitor, vi the rate in the presence of inhibitor and n the Hill number.

S. aureus MurE = biological target: T1, S. aureus MurE (Staphylococcus aureus, UniProt Q2FZP6); assay: MurE enzyme assay (Method B); format: biochemical; settings: for activity at 100 µM: residual activity at 100 μM inhibitor, assay with 5% DMSO and without inhibitor taken as 100%, means of duplicates, read-out: S. aureus MurE RA at 100 μM inhibitor conc.; for IC50: several inhibitor concentrations, Hill equation
T1 sequence (Q2FZP6 1-493): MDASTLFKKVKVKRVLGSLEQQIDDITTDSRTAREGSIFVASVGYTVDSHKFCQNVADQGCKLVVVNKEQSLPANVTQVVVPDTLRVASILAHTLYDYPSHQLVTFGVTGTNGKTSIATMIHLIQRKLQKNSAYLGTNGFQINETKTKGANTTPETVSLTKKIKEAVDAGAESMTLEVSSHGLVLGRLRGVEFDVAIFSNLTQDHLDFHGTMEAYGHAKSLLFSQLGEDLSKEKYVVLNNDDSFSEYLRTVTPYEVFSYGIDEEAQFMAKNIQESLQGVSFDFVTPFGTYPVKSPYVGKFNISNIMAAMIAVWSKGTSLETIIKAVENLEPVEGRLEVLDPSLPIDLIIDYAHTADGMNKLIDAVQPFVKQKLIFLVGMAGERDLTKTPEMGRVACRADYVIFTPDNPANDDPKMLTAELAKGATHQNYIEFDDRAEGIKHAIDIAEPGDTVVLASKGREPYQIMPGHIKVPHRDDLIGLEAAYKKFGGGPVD
Protocol: Method B: MurE Enzyme Assay
The compounds are tested for their ability to inhibit the formation of UDP-MurNAc-L-Ala-γ-D-Glu-L-[^14C]Lys in mixtures (50 μl) containing 0.1 M Tris-HCl, pH 8.6, 15 mM MgCl2, 5 mM ATP, 100 μM UDP-MurNAc-L-Ala-γ-D-Glu, 200 μM L-[^14C]Lys (50,000 cpm), inhibitor (100 μM), DMSO (5%, v/v), and enzyme from S. aureus. After 30 min at 37° C., the reaction is stopped by addition of acetic acid (10 μl). After lyophilization, L-[^14C]Lys and of UDP-MurNAc-L-Ala-Y-D-Glu-L-[^14C]Lys are separated by reverse-phase HPLC on Nucleosil 100C18 5U (150×4.6 mm) in 50 mM ammonium formate, pH 4.7, at 0.6 ml/min, and quantitated by on-line scintillation counting using the Quicksafe Flow 2 scintillating fluid. The residual activity is determined with respect to an assay with 5% DMSO and without inhibitor (taken as 100%). Values presented are means of duplicates.
IC50 values were determined with several concentrations of the inhibitor using the Hill equation:
as §1, §2

[1] = residual activity at 100 μM inhibitor, assay with 5% DMSO and without inhibitor taken as 100%, means of duplicates

E. coli MurD, sequence (P14900 whole entry): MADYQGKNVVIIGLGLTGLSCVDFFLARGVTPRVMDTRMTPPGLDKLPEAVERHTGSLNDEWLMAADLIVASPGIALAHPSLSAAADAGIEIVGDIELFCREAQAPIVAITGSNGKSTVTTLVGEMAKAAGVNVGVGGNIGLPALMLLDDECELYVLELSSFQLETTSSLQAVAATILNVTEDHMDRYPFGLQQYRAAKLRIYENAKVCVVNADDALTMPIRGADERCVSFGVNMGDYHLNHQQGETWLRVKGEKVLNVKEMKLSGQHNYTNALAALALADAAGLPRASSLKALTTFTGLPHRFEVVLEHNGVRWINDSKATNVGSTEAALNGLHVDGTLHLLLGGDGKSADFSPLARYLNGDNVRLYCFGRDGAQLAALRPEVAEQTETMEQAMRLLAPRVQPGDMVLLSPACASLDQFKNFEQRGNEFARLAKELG

Structure (SMILES): O=C1/C(=C/c2c(NCCCO)nc3ccccn3c2=O)SC(=S)N1Cc1ccc2c(c1)OCO2 [Example 1, (Z)-3-(benzo[d][1,3]dioxol-5-yl-methyl)-5-((2-(3-hydroxypropylamino)-4-oxo-4H-pyrido[1,2-a]pyrimidin-3-yl)methylene)-2-thioxothiazolidin-4-one]
- IC50 (E. coli MurD): > 100 µM
- activity at 100 µM (E. coli MurD; [1]): 77%
- activity at 100 µM (S. aureus MurE): 82%
- IC50 (S. aureus MurE): > 100 µM

Structure (SMILES): CNc1nc2ccccn2c(=O)c1/C=C1\SC(=S)N(Cc2ccc3c(c2)OCO3)C1=O [Example 2, (Z)-3-(benzo[d][1,3]dioxol-5-yl-methyl)-5-((2-(methylamino)-4-oxo-4H-pyrido[1,2-a]pyrimidin-3-yl)methylene)-2-thioxothiazolidin-4-one]
- IC50 (E. coli MurD): 111 µM
- activity at 100 µM (E. coli MurD): 22%
- activity at 100 µM (S. aureus MurE): 7%
- IC50 (S. aureus MurE): 4 µM

Structure (SMILES): O=C1/C(=C/c2c(NCC3CCCO3)nc3ccccn3c2=O)SC(=S)N1Cc1ccc2c(c1)OCO2 (centres unmarked) [Example 3, (Z)-3-(benzo[d][1,3]dioxol-5-yl-methyl)-5-((4-oxo-2-((tetrahydrofuran-2-yl)methylamino)-4H-pyrido[1,2-a]pyrimidin-3-yl)methylene)-2-thioxothiazolidin-4-one]
- IC50 (E. coli MurD): 24 µM
- activity at 100 µM (E. coli MurD; [1]): 7%
- activity at 100 µM (S. aureus MurE): 4%
- IC50 (S. aureus MurE): 5 µM

Structure (SMILES): O=C1/C(=C/c2c(NCCO)nc3ccccn3c2=O)SC(=S)N1Cc1ccc2c(c1)OCO2 [Example 4, (Z)-3-(benzo[d][1,3]dioxol-5-yl-methyl)-5-((2-(2-hydroxyethylamino)-4-oxo-4H-pyrido[1,2-a]pyrimidin-3-yl)methylene)-2-thioxothiazolidin-4-one]
- IC50 (E. coli MurD): 15 µM
- activity at 100 µM (E. coli MurD; [1]): 26%
- activity at 100 µM (S. aureus MurE): 4%
- IC50 (S. aureus MurE): 4 µM

Structure (SMILES): O=C1/C(=C/c2c(NCCOCCO)nc3ccccn3c2=O)SC(=S)N1Cc1ccc2c(c1)OCO2 [Example 5, (Z)-3-(benzo[d][1,3]dioxol-5-yl-methyl)-5-((2-(2-(2-hydroxyethoxy)ethylamino)-4-oxo-4H-pyrido[1,2-a]pyrimidin-3-yl)methylene)-2-thioxothiazolidin-4-one]
- IC50 (E. coli MurD): > 100 µM
- activity at 100 µM (E. coli MurD; [1]): 71%
- activity at 100 µM (S. aureus MurE): 10%
- IC50 (S. aureus MurE): 14 µM

Structure (SMILES): O=C1/C(=C/c2ccccn2)SC(=S)N1Cc1ccc2c(c1)OCO2 [Example 6, (Z)-3-(benzo[d][1,3]dioxol-5-yl-methyl)-5-(pyridin-2-yl-methylene)-2-thioxothiazolidin-4-one]
- IC50 (E. coli MurD): > 100 µM
- activity at 100 µM (E. coli MurD; [1]): 99%
- activity at 100 µM (S. aureus MurE): 5%
- IC50 (S. aureus MurE): 37 µM

Structure (SMILES): O=C1/C(=C/c2cccc([N+](=O)[O-])c2)SC(=S)N1Cc1ccc2c(c1)OCO2 [Example 7, (Z)-3-(benzo[d][1,3]dioxol-5-yl-methyl)-5-(3-nitrobenzylidene)-2-thioxothiazolidin-4-one]
- IC50 (E. coli MurD): > 100 µM
- activity at 100 µM (E. coli MurD; [1]): 98%
- activity at 100 µM (S. aureus MurE): 19%
- IC50 (S. aureus MurE): 7 µM

Structure (SMILES): O=C1/C(=C/c2ccccc2O)SC(=S)N1Cc1ccc2c(c1)OCO2 [Example 8, (Z)-3-(benzo[d][1,3]dioxol-5-yl-methyl)-5-(2-hydroxybenzylidene)-2-thioxothiazolidin-4-one]
- IC50 (E. coli MurD): > 100 µM
- activity at 100 µM (E. coli MurD; [1]): 100%
- activity at 100 µM (S. aureus MurE): 23%
- IC50 (S. aureus MurE): 1.5 µM

Structure (SMILES): N#Cc1nc(/C=C2/SC(=S)N(Cc3ccc4c(c3)OCO4)C2=O)oc1N1CCOCC1 [Example 9, (E)-2-((3-(benzo[d][1,3]dioxol-5-yl-methyl)-4-oxo-2-thioxothiazolidin-5-ylidene)methyl)-5-morpholinooxazole-4-carbonitrile]
- IC50 (E. coli MurD): > 100 µM
- activity at 100 µM (E. coli MurD; [1]): 98%
- activity at 100 µM (S. aureus MurE): 17%
- IC50 (S. aureus MurE): 51 µM

Structure (SMILES): O=C1/C(=C/c2cccc(O)c2)SC(=S)N1Cc1ccc2c(c1)OCO2 [Example 10, (Z)-3-(benzo[d][1,3]dioxol-5-yl-methyl)-5-(3-hydroxybenzylidene)-2-thioxothiazolidin-4-one]
- IC50 (E. coli MurD): > 100 µM
- activity at 100 µM (E. coli MurD; [1]): 97%
- activity at 100 µM (S. aureus MurE): 31%
- IC50 (S. aureus MurE): 13 µM

Structure (SMILES): CN(C)c1ccc(/C=C2\SC(=S)N(Cc3ccc4c(c3)OCO4)C2=O)cc1 [Example 11, (Z)-3-(benzo[d][1,3]dioxol-5-yl-methyl)-5-(4-(dimethylamino)benzylidene)-2-thioxothiazolidin-4-one]
- IC50 (E. coli MurD): > 100 µM
- activity at 100 µM (E. coli MurD; [1]): 95%
- activity at 100 µM (S. aureus MurE): 25%
- IC50 (S. aureus MurE): 4.5 µM

Structure (SMILES): CCN(CC)c1ccc(/C=C2\SC(=S)N(Cc3ccc4c(c3)OCO4)C2=O)cc1 [Example 12, (Z)-3-(benzo[d][1,3]dioxol-5-yl-methyl)-5-(4-(diethylamino)benzylidene)-2-thioxothiazolidin-4-one]
- IC50 (E. coli MurD): > 100 µM
- activity at 100 µM (E. coli MurD; [1]): 78%
- activity at 100 µM (S. aureus MurE): 59%
- IC50 (S. aureus MurE): > 100 µM

Structure (SMILES): COc1ccccc1/C=C1\SC(=S)N(Cc2ccc3c(c2)OCO3)C1=O [Example 13, (Z)-3-(benzo[d][1,3]dioxol-5-yl-methyl)-5-(2-methoxybenzylidene)-2-thioxothiazolidin-4-one]
- IC50 (E. coli MurD): > 100 µM
- activity at 100 µM (E. coli MurD; [1]): 75%
- activity at 100 µM (S. aureus MurE): 90%
- IC50 (S. aureus MurE): > 100 µM

Structure (SMILES): COc1ccc(/C=C2\SC(=S)N(Cc3ccc4c(c3)OCO4)C2=O)c(OC)c1 [Example 14, (Z)-3-(benzo[d][1,3]dioxol-5-yl-methyl)-5-(2,4-dimethoxybenzylidene)-2-thioxothiazolidin-4-one]
- IC50 (E. coli MurD): > 100 µM
- activity at 100 µM (E. coli MurD; [1]): 72%
- activity at 100 µM (S. aureus MurE): 67%
- IC50 (S. aureus MurE): > 100 µM
